Test results reported in patent US5728710A, “Rapamycin derivatives” (SmithKline Beecham Corporation, priority 1995, dated 1998).
Like-named read-outs stand apart in the source and are kept apart here.

Columns and labels:
[1] = tested on: Saccharomyces cerevisiae; assay: Assay for Antifungal Activity (agar well zone of inhibition); format: cell-based; settings: zones of inhibition after 48 hours, YPD agar
Procedure: Yeast organism (Saccharomyces cerevisiae) in logarithmic growth were plated on complete agar medium (YPD). Compounds dissolved in an appropriate aqueous or organic solvent were placed in wells punched in the agar. Plates were incubated for 48 hours and zones of inhibition were measured.

[2] = tested on: Spleen cells from BDF1 female mice; assay: Mitogenesis Assay for Immunosuppressive Activity (concanavalin A, 3H-thymidine); format: cell-based; settings: read-out: Mitogenesis IC50
Procedure: Spleen cells from BDF1 female mice were established in RPMI with 10% fetal calf serum at 5×10^6 /mL. One hundred […] of this suspension (5×10^5 cells) were dispensed into 96-well round-bottomed microtiter plates (Linbro, Flow Laboratories). Concanavalin A (5 μg/ml) was added as the mitogenic stimulus, and the final volume in the microtiter wells was adjusted to 200 μL with RPMI. Cell cultures were incubated for 72 hours at 37° C. in a 5% CO2 atmosphere and pulsed with 0.5 μCi ^3 H-thymidine (specific activity […]) for the last 18 hours of the 72 hour culture. The cells were harvested on an automated multiple sample harvester and cell-associated radioactivity counted in a Beckman liquid scintillation counter. The results are expressed as the mean values derived from quadruplicate measurements. Cell viability was determined by trypan blue exclusion after 72 hours of incubation. Compounds to be tested were added to the microtiter plates at the appropriate dilutions prior to the addition of cells.

[3] = Concanavalin A 5 μg/ml, 72 hours at 37° C., 3H-thimidine uptake last 18 hours
[4] = Mus musculus, Concanavalin A 5 μg/ml, 72 hours at 37° C., 3H-thimidine uptake last 18 hours

Compound	IC50 [2, 4] [nM]	also measured
7-Demethoxy-7 (S)-(2' 4'-dimethoxyphenyl)-rapamycin [Example 15]		Antifungal IC12 [1]: < 500 ng/mL; IC50 [2, 3]: < 500 nM
CCO[C@H]1C[C@@H]2CC[C@@H](C)[C@@](O)(O2)C(=O)C(=O)N2CCCC[C@H]2C(=O)O[C@H]([C@H](C)C[C@@H]2CC[C@@H](O)[C@H](OC)C2)CC(=O)[C@H](C)/C=C(\C)[C@@H](O)[C@@H](OC)C(=O)[C@H](C)C[C@H](C)/C=C/C=C/C=C/1C [Example 1, 7-Demethoxy-7(S)-ethoxyrapamycin]	< 500	
CCO[C@@H]1C[C@@H]2CC[C@@H](C)[C@@](O)(O2)C(=O)C(=O)N2CCCC[C@H]2C(=O)O[C@H]([C@H](C)C[C@@H]2CC[C@@H](O)[C@H](OC)C2)CC(=O)[C@H](C)/C=C(\C)[C@@H](O)[C@@H](OC)C(=O)[C@H](C)C[C@H](C)/C=C/C=C/C=C/1C [Example 2, 7-Demethoxy-7(R)-ethoxyrapamycin]	< 500	
COc1ccc(CO[C@H]2C[C@@H]3CC[C@@H](C)[C@@](O)(O3)C(=O)C(=O)N3CCCC[C@H]3C(=O)O[C@H]([C@H](C)C[C@@H]3CC[C@@H](O)[C@H](OC)C3)CC(=O)[C@H](C)/C=C(\C)[C@@H](O)[C@@H](OC)C(=O)[C@H](C)C[C@H](C)/C=C/C=C/C=C/2C)cc1OC [Example 3, 7-Demethoxy-7(S)-(3,4-dimethoxybenzyloxy)rapamycin]	< 500	
CO[C@@H]1C[C@H](C[C@@H](C)[C@@H]2CC(=O)[C@H](C)/C=C(\C)[C@@H](O)[C@@H](OC)C(=O)[C@H](C)C[C@H](C)/C=C/C=C/C=C(\C)[C@@H](OCCO)C[C@@H]3CC[C@@H](C)[C@@](O)(O3)C(=O)C(=O)N3CCCC[C@H]3C(=O)O2)CC[C@H]1O [Example 4, 7-Demethoxy-7(S)-(2-hydroxyethoxy)rapamycin]	< 500	
CO[C@@H]1C[C@H](C[C@@H](C)[C@@H]2CC(=O)[C@H](C)/C=C(\C)[C@@H](O)[C@@H](OC)C(=O)[C@H](C)C[C@H](C)/C=C/C=C/C=C(\C)[C@H](OCCO)C[C@@H]3CC[C@@H](C)[C@@](O)(O3)C(=O)C(=O)N3CCCC[C@H]3C(=O)O2)CC[C@H]1O [Example 5, 7-Demethoxy-7(R)-(2-hydroxyethoxy)rapamycin]	< 500	
CO[C@@H]1C[C@H](C[C@@H](C)[C@@H]2CC(=O)[C@H](C)/C=C(\C)[C@@H](O)[C@@H](OC)C(=O)[C@H](C)C[C@H](C)/C=C/C=C/C=C(\C)[C@H](OC(C)=O)C[C@@H]3CC[C@@H](C)[C@@](O)(O3)C(=O)C(=O)N3CCCC[C@H]3C(=O)O2)CC[C@H]1O [Example 6, 7-Demethoxy-7(R)-acetoxyrapamycin]	< 500	
CO[C@@H]1C[C@H](C[C@@H](C)[C@@H]2CC(=O)[C@H](C)/C=C(\C)[C@@H](O)[C@@H](OC)C(=O)[C@H](C)C[C@H](C)/C=C/C=C/C=C(\C)[C@@H](c3ccco3)C[C@@H]3CC[C@@H](C)[C@@](O)(O3)C(=O)C(=O)N3CCCC[C@H]3C(=O)O2)CC[C@H]1O [Example 7, 7-Demethoxy-7(S)-(2'-furanyl)rapamycin]	< 500	
CO[C@@H]1C[C@H](C[C@@H](C)[C@@H]2CC(=O)[C@H](C)/C=C(\C)[C@@H](O)[C@@H](OC)C(=O)[C@H](C)C[C@H](C)/C=C/C=C/C=C(\C)CC[C@@H]3CC[C@@H](C)[C@@](O)(O3)C(=O)C(=O)N3CCCC[C@H]3C(=O)O2)CC[C@H]1O [Example 8, 7-Demethoxyrapamycin]	< 500	
CO[C@@H]1C[C@H](C[C@@H](C)[C@@H]2CC(=O)[C@H](C)/C=C(\C)[C@@H](O)[C@@H](OC)C(=O)[C@H](C)C[C@H](C)/C=C/C=C/C=C(\C)[C@@H](SC)C[C@@H]3CC[C@@H](C)[C@@](O)(O3)C(=O)C(=O)N3CCCC[C@H]3C(=O)O2)CC[C@H]1O [Example 9, 7-Demethoxy-7(S)-methylthiorapamycin]	< 500	
CO[C@@H]1C[C@H](C[C@@H](C)[C@@H]2CC(=O)[C@H](C)/C=C(\C)[C@@H](O)[C@@H](OC)C(=O)[C@H](C)C[C@H](C)/C=C/C=C/C=C(\C)[C@H](SC)C[C@@H]3CC[C@@H](C)[C@@](O)(O3)C(=O)C(=O)N3CCCC[C@H]3C(=O)O2)CC[C@H]1O [Example 10, 7-Demethoxy-7(R)-methylthiorapamycin]	< 500	
CO[C@@H]1C[C@H](C[C@@H](C)[C@@H]2CC(=O)[C@H](C)/C=C(\C)[C@@H](O)[C@@H](OC)C(=O)[C@H](C)C[C@H](C)/C=C/C=C/C=C(\C)[C@@H](Sc3ccccc3)C[C@@H]3CC[C@@H](C)[C@@](O)(O3)C(=O)C(=O)N3CCCC[C@H]3C(=O)O2)CC[C@H]1O [Example 11, 7-Demethoxy-7 (S)-phenylthiorapamycin]	< 500	
C=CC[C@H]1C[C@@H]2CC[C@@H](C)[C@@](O)(O2)C(=O)C(=O)N2CCCC[C@H]2C(=O)O[C@H]([C@H](C)C[C@@H]2CC[C@@H](O)[C@H](OC)C2)CC(=O)[C@H](C)/C=C(\C)[C@@H](O)[C@@H](OC)C(=O)[C@H](C)C[C@H](C)/C=C/C=C/C=C/1C [Example 13, 7-Demethoxy-7(S)-allylrapamycin]	< 500	
CO[C@@H]1C[C@H](C[C@@H](C)[C@@H]2CC(=O)[C@H](C)/C=C(\C)[C@@H](O)[C@@H](OC)C(=O)[C@H](C)C[C@H](C)/C=C/C=C/C=C(\C)[C@H](c3ccco3)C[C@@H]3CC[C@@H](C)[C@@](O)(O3)C(=O)C(=O)N3CCCC[C@H]3C(=O)O2)CC[C@H]1O [Example 14, 7-Demethoxy-7(R)-(2'-furanyl)rapamycin]	< 500	
COc1ccc(C2CC3CCC(C)C(O)(O3)C(=O)C(=O)N3CCCCC3C(=O)OC(C(C)CC3CCC(O)C(OC)C3)CC(=O)C(C)C=C(C)C(O)C(OC)C(=O)C(C)CC(C)C=CC=CC=C2C)c(OC)c1 [Example 16, 7-Demethoxy-7 (R)-2',4'-dimethoxyphenyl)-rapamycin]		Antifungal IC12 [1]: < 500 ng/mL; IC50 [2, 3]: < 1000 nM
CO[C@@H]1C[C@H](C[C@@H](C)[C@@H]2CC(=O)[C@H](C)/C=C(\C)[C@@H](O)[C@@H](OC)C(=O)[C@H](C)C[C@H](C)/C=C/C=C/C=C(\C)C(=O)C[C@@H]3CC[C@@H](C)[C@@](O)(O3)C(=O)C(=O)N3CCCC[C@H]3C(=O)O2)CC[C@H]1O [Example 17, 7-Demethoxy-7-Oxorapamycin]	< 500	
CO[C@@H]1C[C@H](C[C@@H](C)[C@@H]2CC(=O)[C@H](C)/C=C(\C)[C@@H](O)[C@@H](OC)C(=O)[C@H](C)C[C@H](C)/C=C/C=C/C=C(\C)[C@@H](O)C[C@@H]3CC[C@@H](C)[C@@](O)(O3)C(=O)C(=O)N3CCCC[C@H]3C(=O)O2)CC[C@H]1O [Example 18, 7-O-Demethylrapamycin]	< 500	
CO[C@@H]1C[C@H](C[C@@H](C)[C@@H]2CC(=O)[C@H](C)/C=C(\C)[C@@H](O)[C@@H](OC)C(=O)[C@H](C)C[C@H](C)/C=C/C=C/C=C(\C)[C@H](O)C[C@@H]3CC[C@@H](C)[C@@](O)(O3)C(=O)C(=O)N3CCCC[C@H]3C(=O)O2)CC[C@H]1O [Example 19, 7-O-Demethyl-7-Epirapamycin]	< 500	
CO[C@@H]1C[C@@H]2CC[C@@H](C)[C@@](O)(O2)C(=O)C(=O)N2CCCC[C@H]2C(=O)O[C@H]([C@H](C)C[C@@H]2CC[C@@H](O)[C@H](OC)C2)CC(=O)[C@H](C)/C=C(\C)[C@@H](O)[C@@H](OC)C(=O)[C@H](C)C[C@H](C)/C=C/C=C/C=C/1C [Example 20, 7-Epirapamycin]		IC50 ([2]; Mus musculus): < 500 nM
